Target: T1, HDAC6 enzyme (Homo sapiens, UniProt Q9UBN7)
T1 construct: prepared by transducing full length HDAC1 and HDAC6 genes into Sf-9 insect cells; GST; purchased SignalChem; host or cells: Sf-9 insect cells
T1 sequence (Q9UBN7 1-1215): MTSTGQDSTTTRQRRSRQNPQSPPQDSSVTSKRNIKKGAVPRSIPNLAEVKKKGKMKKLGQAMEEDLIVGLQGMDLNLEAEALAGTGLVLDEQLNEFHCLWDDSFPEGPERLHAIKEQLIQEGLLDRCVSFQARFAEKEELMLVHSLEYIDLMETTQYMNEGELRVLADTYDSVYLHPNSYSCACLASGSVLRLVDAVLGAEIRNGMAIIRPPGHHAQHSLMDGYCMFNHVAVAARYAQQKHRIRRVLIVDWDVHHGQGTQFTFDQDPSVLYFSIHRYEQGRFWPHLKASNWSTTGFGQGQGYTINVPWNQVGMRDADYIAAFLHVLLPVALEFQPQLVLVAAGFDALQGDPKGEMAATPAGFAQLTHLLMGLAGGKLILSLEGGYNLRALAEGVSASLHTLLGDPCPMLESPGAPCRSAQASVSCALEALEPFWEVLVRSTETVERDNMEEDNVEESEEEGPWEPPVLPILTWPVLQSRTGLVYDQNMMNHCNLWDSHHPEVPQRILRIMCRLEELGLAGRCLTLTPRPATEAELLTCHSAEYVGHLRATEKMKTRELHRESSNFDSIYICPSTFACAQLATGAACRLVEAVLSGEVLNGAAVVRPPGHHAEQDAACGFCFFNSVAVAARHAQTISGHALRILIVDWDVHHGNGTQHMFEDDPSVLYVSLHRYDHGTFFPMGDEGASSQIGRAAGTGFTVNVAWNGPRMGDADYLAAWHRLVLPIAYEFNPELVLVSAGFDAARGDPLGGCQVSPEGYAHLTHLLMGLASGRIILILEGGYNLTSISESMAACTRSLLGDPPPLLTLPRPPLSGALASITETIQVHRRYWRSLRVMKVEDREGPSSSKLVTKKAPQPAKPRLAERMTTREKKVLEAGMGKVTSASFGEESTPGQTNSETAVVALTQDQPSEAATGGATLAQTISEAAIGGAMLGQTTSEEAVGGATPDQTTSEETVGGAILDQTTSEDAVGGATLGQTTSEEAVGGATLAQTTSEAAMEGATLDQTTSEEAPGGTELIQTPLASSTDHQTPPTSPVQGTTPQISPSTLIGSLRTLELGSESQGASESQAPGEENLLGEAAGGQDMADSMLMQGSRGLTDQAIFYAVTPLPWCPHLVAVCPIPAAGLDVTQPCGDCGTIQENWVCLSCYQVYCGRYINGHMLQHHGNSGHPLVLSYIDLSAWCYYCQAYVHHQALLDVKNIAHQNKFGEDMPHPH
Assay: HDAC6 enzyme inhibitory assay (HDAC-Glo I/II Assay kit)
Format: biochemical
Details: 1 μM test compound; read-out: HDAC6 inhibitory rate (%) (1 μM)
In short: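 Luminescence read-out: 20 min after adding HDAC-Glo substrate-developer at room temperature. Before that, compound and Sf-9-expressed, GST-purified full-length HDAC1 or HDAC6 sat together 60 min in pH 7.5 Tris buffer. Inhibition is relative to no-enzyme wells taken as 100%.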

N#Cc1ccc(C(=O)N2CCOCC2CNC(=O)c2ccc(-c3noc(C(F)(F)F)n3)s2)cc1 (centres unmarked) [Example 219, N-((4-(4-cyanobenzoyl)morpholin-3-yl)methyl)-5-(5-(trifluoromethyl)-1,2,4-oxadiazol-3-yl)thiophene-2-carboxamide]
inhibition at 1 µM: 90%

O=C(NCC1COCCN1C(=O)c1ccccc1Cl)c1ccc(-c2noc(C(F)(F)F)n2)s1 (centres unmarked) [Example 214, N-((4-(2-chlorobenzoyl)morpholin-3-yl)methyl)-5-(5-(trifluoromethyl)-1,2,4-oxadiazol-3-yl)thiophene-2-carboxamide]
inhibition at 1 µM: 96%

O=C(NCC1COCCN1C(=O)c1cccc(Cl)c1)c1ccc(-c2noc(C(F)(F)F)n2)s1 (centres unmarked) [Example 215, N-((4-(3-chlorobenzoyl)morpholin-3-yl)methyl)-5-(5-(trifluoromethyl)-1,2,4-oxadiazol-3-yl)thiophene-2-carboxamide]
inhibition at 1 µM: 94%

O=C(NCC1COCCN1C(=O)c1cccc2c1OCC2)c1ccc(-c2noc(C(F)(F)F)n2)s1 (centres unmarked) [Example 252, N-((4-(2,3-dihydro-1-benzofuran-7-ylcarbonyl)morpholin-3-yl)methyl)-5-(5-(trifluoromethyl)-1,2,4-oxadiazol-3-yl)thiophene-2-carboxamide]
inhibition at 1 µM: 91%

O=C(NCC1COCCN1C(=O)c1cccc(F)c1)c1ccc(-c2noc(C(F)(F)F)n2)s1 (centres unmarked) [Example 212, N-((4-(3-fluorobenzoyl)morpholin-3-yl)methyl)-5-(5-(trifluoromethyl)-1,2,4-oxadiazol-3-yl)thiophene-2-carboxamide]
inhibition at 1 µM: 97%

Cc1cc(C(=O)N2CCOCC2CNC(=O)c2ccc(-c3noc(C(F)(F)F)n3)s2)n(C)n1 (centres unmarked) [Example 230, N-((4-((1,3-dimethyl-1H-pyrazol-5-yl)carbonyl)morpholin-3-yl)methyl)-5-(5-(trifluoromethyl)-1,2,4-oxadiazol-3-yl)thiophene-2-carboxamide]
inhibition at 1 µM: 88%

O=C(NC[C@H]1COCCN1C(=O)c1cccs1)c1ccc(-c2noc(C(F)(F)F)n2)cn1 [Example 197, N-(((3S)-4-(2-thienylcarbonyl)morpholin-3-yl)methyl)-5-(5-(trifluoromethyl)-1,2,4-oxadiazol-3-yl)pyridine-2-carboxamide]
inhibition at 1 µM: 97%

O=C(NCC1COCCN1C(=O)c1cc(F)cc(F)c1)c1ccc(-c2noc(C(F)(F)F)n2)s1 (centres unmarked) [Example 213, N-((4-(3,5-difluorobenzoyl)morpholin-3-yl)methyl)-5-(5-(trifluoromethyl)-1,2,4-oxadiazol-3-yl)thiophene-2-carboxamide]
inhibition at 1 µM: 95%

O=C(NC[C@@H]1COCCN1C(=O)C(c1ccccc1)c1ccccc1)c1ccc(-c2noc(C(F)(F)F)n2)cc1 [Example 129, N-(((3R)-4-(diphenylacetyl)morpholin-3-yl)methyl)-4-(5-(trifluoromethyl)-1,2,4-oxadiazol-3-yl)benzamide]
inhibition at 1 µM: 53%

N#Cc1ccccc1C(=O)N1CCOCC1CNC(=O)c1ccc(-c2noc(C(F)(F)F)n2)s1 (centres unmarked) [Example 217, N-((4-(2-cyanobenzoyl)morpholin-3-yl)methyl)-5-(5-(trifluoromethyl)-1,2,4-oxadiazol-3-yl)thiophene-2-carboxamide]
inhibition at 1 µM: 94%

O=C(NCC1COCCN1C(=O)CCc1ccccc1)c1ccc(-c2noc(C(F)(F)F)n2)s1 (centres unmarked) [Example 250, N-((4-(3-phenylpropanoyl)morpholin-3-yl)methyl)-5-(5-(trifluoromethyl)-1,2,4-oxadiazol-3-yl)thiophene-2-carboxamide]
inhibition at 1 µM: 98%

Cc1ccsc1C(=O)N1CCOC[C@H]1CNC(=O)c1ccc(-c2noc(C(F)(F)F)n2)cc1 [Example 146, N-(((3R)-4-((3-methyl-2-thienyl)carbonyl)morpholin-3-yl)methyl)-4-(5-(trifluoromethyl)-1,2,4-oxadiazol-3-yl)benzamide]
inhibition at 1 µM: 94%

O=C(NCC1COCCN1C(=O)c1ccccc1)c1cc(-c2noc(C(F)(F)F)n2)cs1 (centres unmarked) [Example 267, N-((4-benzoylmorpholin-3-yl)methyl)-4-(5-(trifluoromethyl)-1,2,4-oxadiazol-3-yl)thiophene-2-carboxamide]
inhibition at 1 µM: 52%

O=C(NCC1COCCN1C(=O)C1CC1)c1ccc(-c2noc(C(F)(F)F)n2)s1 (centres unmarked) [Example 253, N-((4-(cyclopropylcarbonyl)morpholin-3-yl)methyl)-5-(5-(trifluoromethyl)-1,2,4-oxadiazol-3-yl)thiophene-2-carboxamide]
inhibition at 1 µM: 97%

N#Cc1cc(F)cc(C(=O)N2CCOC[C@H]2CNC(=O)c2ccc(-c3noc(C(F)(F)F)n3)cc2)c1 [Example 156, N-(((3R)-4-(3-cyano-5-fluorobenzoyl)morpholin-3-yl)methyl)-4-(5-(trifluoromethyl)-1,2,4-oxadiazol-3-yl)benzamide]
inhibition at 1 µM: 95%

Cc1cc(C(=O)N2CCOC[C@@H]2CNC(=O)c2ccc(-c3noc(C(F)(F)F)n3)cc2)cc(O)n1 [Example 50, N-(((3S)-4-(2-hydroxy-6-methylisonicotinoyl)morpholin-3-yl)methyl)-4-(5-(trifluoromethyl)-1,2,4-oxadiazol-3-yl)benzamide]
inhibition at 1 µM: 95%

Cn1ccc(C(=O)N2CCOC[C@H]2CNC(=O)c2ccc(-c3noc(C(F)(F)F)n3)cc2)n1 [Example 137, N-(((3R)-4-((1-methyl-1H-pyrazol-3-yl)carbonyl)morpholin-3-yl)methyl)-4-(5-(trifluoromethyl)-1,2,4-oxadiazol-3-yl)benzamide]
inhibition at 1 µM: 93%

O=C(NCC1COCCN1C(=O)c1ccncc1)c1ccc(-c2noc(C(F)(F)F)n2)s1 (centres unmarked) [Example 226, N-((4-isonicotinoylmorpholin-3-yl)methyl)-5-(5-(trifluoromethyl)-1,2,4-oxadiazol-3-yl)thiophene-2-carboxamide]
inhibition at 1 µM: 95%

O=C(NCC1COCCN1C(=O)c1ccncc1)c1ccc(-c2noc(C(F)(F)F)n2)cc1 (stereo in doubt) [Example 120, N-(((3R)-4-isonicotinoylmorpholin-3-yl)methyl)-4-(5-(trifluoromethyl)-1,2,4-oxadiazol-3-yl)benzamide]
inhibition at 1 µM: 96%

Cn1cc(C(=O)N2CCOCC2CNC(=O)c2ccc(-c3noc(C(F)(F)F)n3)s2)cn1 (centres unmarked) [Example 233, N-((4-((1-methyl-1H-pyrazol-4-yl)carbonyl)morpholin-3-yl)methyl)-5-(5-(trifluoromethyl)-1,2,4-oxadiazol-3-yl)thiophene-2-carboxamide]
inhibition at 1 µM: 78%

O=C(NC[C@H]1COCCN1C(=O)C1CCOC1)c1ccc(-c2noc(C(F)(F)F)n2)cc1 (stereo partly drawn) [Example 79, N-(((3S)-4-(tetrahydrofuran-3-ylcarbonyl)morpholin-3-yl)methyl)-4-(5-(trifluoromethyl)-1,2,4-oxadiazol-3-yl)benzamide]
inhibition at 1 µM: 94%

Cn1ccnc1C(=O)N1CCOCC1CNC(=O)c1ccc(-c2noc(C(F)(F)F)n2)cc1 (centres unmarked) [Example 16, N-((4-((1-methyl-1H-imidazol-2-yl)carbonyl)morpholin-3-yl)methyl)-4-(5-(trifluoromethyl)-1,2,4-oxadiazol-3-yl)benzamide]
inhibition at 1 µM: 93%

O=C(NC[C@@H]1COCCN1C(=O)c1cc2ncccn2n1)c1ccc(-c2noc(C(F)(F)F)n2)cc1 [Example 126, N-(((3R)-4-(pyrazolo[1,5-a]pyrimidin-2-ylcarbonyl)morpholin-3-yl)methyl)-4-(5-(trifluoromethyl)-1,2,4-oxadiazol-3-yl)benzamide]
inhibition at 1 µM: 88%

— patent US10081624B2, “Heterocyclic compound” (Takeda Pharmaceutical Company Limited, priority 2014, dated 2018)
